Converted amounts (≈) assume the structure as drawn.
Columns and labels:
[1] = tested on: indigenous bacteria in human sebum; assay: Human sebum assay, bactericidal activity; type: cell-based; settings: 250 Micromolar peptide, 150 minutes at 37° C; none: 8500000
Method: Sebum was harvested from healthy human volunteers using Biore® deep cleansing pore strips. The seburn plugs were collected in a microtube with a tweezer. […] The seburn was resusupended in 1% TSB, 10 mM Na2HPO4 into fine particulate suspension. The assay was performed in a total volume of 50 microliters. […] The samples were incubated for 150 minutes at 37° C. To determine the number of viable bacteria, a serial dilution was prepared (10 fold dilutions to 1/100000). […] After incubation for 72 hours bacterial growth was documented (Alpha Innotech documentation system). The number of CFU/milliliter was determined by counting bacteria colonies. The efficacy of a peptide is indicated by the reduction of CFU/milliliter compared to the untreated control.

S. aureus (Rosenbach) = assay: Broth microdilution assay for MIC (20% TSB, 50 mM Na2CO3, 1 mM MgCl2), Table 4A; type: cell-based, Staphylococcus aureus; settings: 3 log or greater reduction in bacterial growth over 16 hours
Method: (§1) S. dublin (Lane), S. aureus (Rosenbach), P. acnes, ATCC 6919, E. coli K12 TOP10, and E. coli K12 55099 (protease neg.) bacterial strains were tested in the microbial inhibition assays described hereafter. The S. dublin (Lane), and S. aureus (Rosenbach) strains are available from ATCC (Staphylococcus aureus subsp. aureus Rosenbach (Number: 13150) and Salmonella choleraesuis serotype dublin (Number: 39184)). The strain of P. acnes was purchased from ATCC (strain #6919) (Manassas, Va.). The E. coli K12 strains TOP 10 and 55099 were purchased from Invitrogen (Carlsbad, Calif.) and ATCC respectively. HeLa cells were purchased from ATCC (CCL2). Tryptic soy broth (TSB), Brucella broth, reinforced Clostridial broth and agar were purchased from Becton & Dickinson (distributed by VWR, West Chester, Pa.). All plastic consumables were purchased from VWR (West Chester, Pa.). […]
(§2) The minimum inhibitory concentration (MIC) of peptide compositions for S. aureus, S. dublin and E. coli was determined in a broth microdilution assay. […] The MIC for each peptide for each microorganism was determined by three methods. The growth of bacteria was directly determined by measuring the absorption at 600 nm using a Versamax microplate reader (Molecular Devices). […] After incubation for 16 hours at 37° C. bacterial growth was evaluated and documented (Alpha Innotech gel documentation system).

S. dublin (Lane) = assay: Broth microdilution assay for MIC, Table 4A; type: cell-based, Salmonella dublin; settings: 3 log or greater reduction in bacterial growth over 16 hours
Method: as §1, §2

## CSCC[C@@H](NC(=O)[C@@H](Cc1ccccc1)NC(=O)[C@@H](CC(N)=O)NC(=O)[C@@H](CCCNC(=N)N)NC(=O)[C@@H](CO)NC(=O)[C@@H](Cc1c[nH]c2ccccc12)NC(=O)[C@@H](CC(=O)O)NC(=O)[C@@H](CCCNC(=N)N)NC(=O)[C@@H](Cc1c[nH]c2ccccc12)NC(=O)[C@@H](CCCNC(=N)N)NC(=O)[C@@H](CO)NC(=O)[C@@H](CCCNC(=N)N)NC(=O)CNC(=O)[C@H](NC(=O)[C@@H](CCCNC(=N)N)NC(=O)[C@@H](CO)NC(=O)[C@H](NC(=O)[C@@H](CCCNC(=N)N)NC(=O)[C@H](NC(C)=O)[C@H](C)O)C(C)C)[C@H](C)O)C(=O)N[C@H](CCCNC(=N)N)C(=O)N[C@H](C)C(=O)N[C@H](C)C(N)=O [Peptide 30, Ac-trvsrtgrsrwrdwsrnfmraa-NH2]
[1]
  Bactericidal activity for indigenous bacteria in human sebum, cfu/ml: 1000 cfu/ml
S. aureus (Rosenbach)
  Minimum inhibitory concentration (MIC) S. aureus: 8 µM (≈ 22.4 µg/mL)
S. dublin (Lane)
  Minimum inhibitory concentration (MIC) S. dublin: 4 µM (≈ 11.2 µg/mL)
